Literature values in patent US20200046664A1, “METHOD FOR PREPARATION OF LIQUID ORAL COMPOSITION OF L-THYROXIN” (FTF PHARMA PRIVATE LIMITED, priority 2016, published 2020).

For N[C@@H](Cc1cc(I)c(Oc2cc(I)c(O)c(I)c2)c(I)c1)C(=O)[O-].[Na+] [Levothyroxine sodium, Sodium (2S)-2-amino-3-[4-(4-hydroxy-3,5-diiodophenoxy)-3,5-diiodophenyl]propanoate], the “Solubility in ethanol (96 percent)” value (ethanol (96 percent)) is given as “slightly soluble” and the Solubility in water (water) is given as “very slightly soluble”.
